Results from patent publication US20030077768A1, “Use of xylene monooxygenase for the oxidation of substituted polycyclic aromatic compounds” (priority 2001, published 2003).

Key:
Sphingomonas strain ASU1 = assay: Carbon source utilization (growth on S12 agar) by strain ASU1; assay type: cell-based; details: compound as sole source of carbon and energy, 28° C., listed as 2,6-DMN
Description: S12 agar was used to isolate bacteria from liquid enrichment cultures that grow on 2,6-DMN and to test isolates for growth with various sources of carbon and energy. S12 agar was prepared by adding 1.5% Noble agar (DIFCO) to S12 medium.
Since 2,6-DMN has low aqueous solubility, bacteria growing in S12 medium were supplied with 2,6-DMN by adding a few flakes of the compound directly to the culture. Bacteria growing on S12 agar were supplied with naphthalene, 2-methylnapthalene or 2,6-DMN by placing a few flakes of the compound on the interior of the petri dish lid. All petri dishes were sealed with parafilm and incubated with the lid on the bottom.
Bacteria that grow on 2,6-DMN were isolated from an enrichment culture. The enrichment culture was established by inoculating 0.1 mL of activated sludge into 10 mL of S12 medium in a 125 mL screw cap Erlenmeyer flask. The activated sludge was obtained from a DuPont wastewater treatment facility. The enrichment culture was supplemented with adding yeast extract (0.001% final concentration) by adding a few flakes of 2,6-DMN directly to the culture medium. The enrichment culture was incubated at 28° C. with reciprocal shaking. The culture was diluted every 4 to 7 d by replacing 9 mL of the culture with the same volume of S12 medium with 0.001% yeast extract and a few additional flakes of 2,6-DMN. […]

[1] = test system: ASU1 xylene monooxygenase; assay: Oxidation of 2,6-DMN by Escherichia coli recombinant with cloned ASU1 xylene monooxygenase genes (Clone 4a); assay type: cell-based, Sphingomonas strain ASU1; details: E. coli Clone 4a; M9 medium; 24 mg 2,6-DMN in FC-75 carrier phase; 37° C.; HPLC and GC/MS; metabolites 6-M-2-HMN, 6-M-2-NA, 2,6-NDC
Description: (§1) HPLC system used was a Hewlett Packard 1100 series with a photo diode array detector and LC/MSD-ESI Negative ion. Column used was Hewlett Packard part #880975-902 Zorbax® SB-C18 (4.6×12.5 mm, 5 micron), purchased from Agilient Technologies (Foster City, Calif.). The column temperature was controlled at 30° C. Mobile phase was […] ammonium acetate [20 mL 1 M ammonium acetate in 1800 mL water (solvent-2=S-2)] and acetonitrile (Solvent-1=S-1). The gradient used was 0-3 min 10% S-1 and 90% S-2, gradient was increased to 100% S-1 in 33 min, and again reduced to 10% S-1 and 90% S-2 in 3 min. Flow rate used for the mobile phase was 0.9 mL/min. 100 μL samples were injected, 230 nm wavelength was used for detection of the intermediates of 2,6-dimethylnaphthalene. Intermediates were prepared by as follows, as intermediates needed were not available in the market. Intermediates prepared were 6-methyl-2-napthoic acid, 6-methyl-2-hydroxymethylnaphthalene, and 2,6-Bis(hydroxymethyl)naphthalene. The retention time and diode array scans of the intermediates matched with the prepared standards. The mass spectrometer fragmentation pattern of the 6-methyl-2-napthoic acid in the sample matched that of the standards prepared.
(§2) GC/MS was also used to analyze the samples. […]
(§3) The conversion of 2,6-DMN to 2,6-NDC was monitored by reverse phase HPLC. […]

[2] = target: T1, pWWO xylene monooxygenase (Pseudomonas putida, UniProt P21395); assay: Oxidation of 2,6-DMN by Escherichia coli recombinant with cloned pWWO xylene monooxygenase genes (Clone 6f); assay type: cell-based; details: E. coli Clone 6f; M9 medium; 24 mg 2,6-DMN in FC-75 carrier phase; 37° C.; HPLC and GC/MS; metabolites 6-M-2-HMN, 6-M-2-NA, 2,6-HMN
T1 construct: A fragment of pWWO DNA that contained xylM and xylA was cloned into a small, multicopy plasmid; expressed in transfected cells; host or cells: Escherichia coli TOP10 carrying pCR2.1-TOPO with the 2.4 kb pWWO xylM-xylA PCR fragment from strain ATCC 33015 (Clone 6f)
Description: as §1, §2, §3

[3] = Aqueous solubility (statement); assay type: physicochemical

T1 sequence (P21395 whole entry, the tested form may be a part): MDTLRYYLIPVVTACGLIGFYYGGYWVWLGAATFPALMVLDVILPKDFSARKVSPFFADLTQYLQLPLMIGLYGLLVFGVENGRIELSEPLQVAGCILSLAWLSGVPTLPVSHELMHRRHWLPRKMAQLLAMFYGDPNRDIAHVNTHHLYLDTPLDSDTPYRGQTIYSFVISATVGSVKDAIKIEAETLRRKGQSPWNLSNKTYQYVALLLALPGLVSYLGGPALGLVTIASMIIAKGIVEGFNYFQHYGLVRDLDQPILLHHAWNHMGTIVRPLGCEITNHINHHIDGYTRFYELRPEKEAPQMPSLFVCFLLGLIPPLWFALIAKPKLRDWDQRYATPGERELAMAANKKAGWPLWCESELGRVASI

SMILES: Cc1ccc2cc(C)ccc2c1 [2,6-dimethylnaphthalene, 2,6-Dimethylnaphthalene]
- Growth on Carbon Source (Sphingomonas strain ASU1): able to grow
- Substrate for the ASU1 xylene monooxygenase (oxidation by Clone 4a) [1]: substrate
- Substrate for the pWWO xylene monooxygenase (oxidation by Clone 6f) [2]: substrate
- aqueous solubility [3]: low
